The record followed here is ChEMBL document CHEMBL3351663, “Discovery of acylurea isosteres of 2-acylaminothiadiazole in the azaxanthene series of glucocorticoid receptor agonists” (Bioorg Med Chem Lett, 2014).

Series [1] concerns the target T1, Glucocorticoid receptor (Homo sapiens, UniProt P04150).
T1 sequence (P04150 whole entry): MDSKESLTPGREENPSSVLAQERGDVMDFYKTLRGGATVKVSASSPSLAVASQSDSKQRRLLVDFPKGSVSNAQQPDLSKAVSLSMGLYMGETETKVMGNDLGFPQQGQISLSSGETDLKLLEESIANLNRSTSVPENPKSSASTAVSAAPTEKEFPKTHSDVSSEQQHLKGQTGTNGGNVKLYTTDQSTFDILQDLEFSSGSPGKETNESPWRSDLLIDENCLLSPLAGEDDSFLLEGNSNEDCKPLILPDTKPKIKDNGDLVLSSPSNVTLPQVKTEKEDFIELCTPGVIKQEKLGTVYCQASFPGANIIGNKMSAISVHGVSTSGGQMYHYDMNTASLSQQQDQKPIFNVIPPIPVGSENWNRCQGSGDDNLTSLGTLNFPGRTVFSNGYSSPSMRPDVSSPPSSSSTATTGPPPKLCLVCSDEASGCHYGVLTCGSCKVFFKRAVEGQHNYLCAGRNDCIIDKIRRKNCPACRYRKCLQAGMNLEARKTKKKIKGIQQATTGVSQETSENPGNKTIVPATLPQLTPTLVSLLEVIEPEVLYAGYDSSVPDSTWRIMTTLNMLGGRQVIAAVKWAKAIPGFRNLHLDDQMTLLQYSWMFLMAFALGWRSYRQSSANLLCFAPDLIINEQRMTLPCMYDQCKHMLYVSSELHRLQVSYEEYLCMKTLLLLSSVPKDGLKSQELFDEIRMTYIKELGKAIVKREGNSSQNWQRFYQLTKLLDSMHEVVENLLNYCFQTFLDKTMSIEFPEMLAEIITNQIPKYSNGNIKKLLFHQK
The series is described as follows: Binding affinity to glucocorticoid receptor (unknown origin) by fluorescence polarization assay.

Series [2] addresses T1, Glucocorticoid receptor. The series is described as follows: Agonist activity at glucocorticoid receptor in human A549 cells assessed as E-selectin transrepression by luciferase reporter gene assay. In kind it is cell-based. (Reporter assays use an easily measured gene product as a stand-in for the process of interest.)
Series [3] deals with T2, Cytochrome P450 2C8 (Homo sapiens, UniProt P10632).
T2 sequence (P10632 whole entry): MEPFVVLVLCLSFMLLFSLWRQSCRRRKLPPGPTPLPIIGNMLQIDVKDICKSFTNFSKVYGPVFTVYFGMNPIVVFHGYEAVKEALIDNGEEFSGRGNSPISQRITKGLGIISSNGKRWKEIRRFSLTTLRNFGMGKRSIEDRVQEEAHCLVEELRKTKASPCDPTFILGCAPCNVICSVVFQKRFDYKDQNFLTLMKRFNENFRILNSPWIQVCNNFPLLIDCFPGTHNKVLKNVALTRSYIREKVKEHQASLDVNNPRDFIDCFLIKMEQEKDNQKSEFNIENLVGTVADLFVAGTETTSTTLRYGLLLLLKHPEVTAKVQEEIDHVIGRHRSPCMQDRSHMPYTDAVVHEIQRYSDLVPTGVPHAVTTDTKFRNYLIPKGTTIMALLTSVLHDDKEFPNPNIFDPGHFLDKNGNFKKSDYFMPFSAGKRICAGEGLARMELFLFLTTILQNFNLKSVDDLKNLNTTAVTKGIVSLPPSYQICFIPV
Description: Inhibition of CYP2C8 (unknown origin). In kind it is ADME.

Series [4] deals with Liver microsome. Description: Metabolic stability in human liver microsomes assessed as compound remaining. Background: Liver microsomes are a subcellular fraction often used to study metabolism.
The subject of series [5] is Liver microsome. Description: Metabolic stability in rat liver microsomes assessed as compound remaining.
In series [6] the test system is Liver. The series is described as follows: Metabolic stability in mouse liver microsomes assessed as compound remaining.

pEC50, pIC50, pKi: −log10 of the molar value.

As a reminder, the pKi is the Ki on a negative log10 scale, so that one unit is a factor of ten. Read a high pKi as a low Ki. One may read the pEC50 as the EC50 on a negative log10 scale, so that one unit is a factor of ten. As a reminder, the pIC50 is −log10 of the IC50, conventionally taken in molar units. Low values mean a large IC50, high ones a small IC50.

Consider `CC(C)(C(=O)NC(N)=O)[C@@H]1c2ccc(-c3ccc(C(=O)N4CCOCC4)cc3)nc2Oc2c(F)cccc21`, for which the pKi in series [1] is 8.68. In series [2], the pEC50 is 8.92. The molecule also had a pIC50 in series [3] of 5.05. The figures for the Stability in series [4], in series [5] and in series [6] were 83%, 90% and 80%, respectively.
In the case of `CC(C)(C(=O)Nc1nncs1)[C@@H]1c2ccc(-c3ccc(C(=O)N4CCOCC4)cc3)nc2Oc2c(F)cccc21`, the pKi in series [1] was 8.80. The molecule further gave a pIC50 in series [3] of 5.43.
